In patent US11607461B2, “Compositions and methods for genetically modifying myosin phosphatase target subunit (Mypt1) gene for lowering blood pressure” (University of Maryland, Baltimore, priority 2016, dated 2023):

Legend:
[1] = test system: First-order mesenteric arteries (MA1); assay: Wire myography: relaxation to 8-Br-cGMP of α-toxin permeabilized, calcium-clamped arteries; parameters: species or system mouse; conditions: for EC50: α-toxin permeabilized, pCa6
Text: (§1) First-order mesenteric arteries (2 mm length; 200-250 μm ID) were dissected free of connective tissue in a HEPES-bicarbonate physiological saline solution containing the following concentrations (in mM): 112 NaCl, 25.7 NaHCO3, 4.9 KCl, 2.0 CaCl2, 1.2 MgSO4, 1.2 KH2PO4, 11.5 glucose, and 10 HEPES. The solution was at pH 7.4 and maintained at 37 C for experiments. Arteries were mounted on a 4-chamber wire myograph (Model 610M, Danish Myo Technology, Aarhus, Denmark). Force was continuously recorded and measured at steady state. Starting tension (IC90) was equally applied to all arteries as previously described (Reho et al., Am J Physiol Heart Circ Physiol 307: H563-573, 2014). Arteries were then primed with 2 separate dose of phenylephrine (10 μM) and allowed to equilibrate for 20 minutes in fresh, heated HEPES-bicarbonate buffer. Intact arteries were subjected to dose response to phenylephrine (α-adrenergic agonist; 1 nM-100 μM), U46619 (thromboxane mimetic; 1 nM-10 μM), and angiotensin II (1 nM-10 μM). Maximal response of MAs to depolarization was assessed with 100 mM KCl. A subset of arteries was permeabilized with α-toxin (1000 U/mL) and subjected to calcium clamp in high relaxing solution (pCa9) containing the following (in mM): 60 KMS, 5 EGTA, 0.02 CaCl2, 9.26 MgCl2, 5.2 Na2ATP, 25 creatine phosphate, and 25 BES with pH 7.1 (intracellular pH) by 1N KOH. Permeabilized arteries were subjected to dose response of calcium. Phenylephrine-induced calcium sensitization was performed under calcium clamp at a sub-maximal concentration of calcium (pCa6; 1 μM) with intracellular calcium stores depleted by preincubation of arteries with 10 μM A-23187. Vessels were activated with 10 μM phenylephrine with or without preincubation with L-NAME (100 μM). Vasorelaxation responses to the NO donor DEA/NO were assessed in intact arteries activated with a sub-maximal concentration of phenylephrine (10 μM). Dose response to 8-Br-cGMP (1 nM-100 μM) were assessed in α-toxin permeabilized, calcium-clamped (pCa6; 1 μM) arteries. Relaxation data are presented as percent of maximal force. All chemicals were purchased from Sigma-Aldrich (St Louis, Mo.).
(§2) All data are presented as means±SEM. Data were analyzed and graphed using SigmaPlot software (SYSTAT, Chicago, Ill.). mRNA and protein data and mean arterial pressures were analyzed using a one way ANOVA. Vascular function data were analyzed via One way ANOVA and a Bonferroni post-hoc test or Two way repeated measures ANOVA and a Bonferroni post-hoc test. EC50 were calculated via standard curve analysis. Significance was accepted with a p<0.05.

[2] = test system: First-order mesenteric arteries (MA1); assay: Wire myography: force generation, dose response to phenylephrine in intact arteries; conditions: Mus musculus, read-out: EC50 force generation to PE
Text: as §1, §2

[3] = test system: First-order mesenteric arteries (MA1); assay: Wire myography: vasorelaxation to DEA/NO of intact arteries activated with phenylephrine; parameters: species or system mouse; conditions: for EC50: pre-constriction with PE 10 μM, read-out: EC50 relaxation to DEA/NO
Text: as §1, with “Permeabilized arteries were subjected to dose response of calcium. Phenylephrine-induced calcium sensitization was performed under calcium clamp at a sub-maximal concentration of calcium (pCa6; 1 μM) with intracellular calcium stores depleted by preincubation of arteries with 10 μM A-23187. Vessels were activated with 10 μM phenylephrine with or without preincubation with L-NAME (100 μM).” left out, “Relaxation data are presented as percent of maximal force. All chemicals were purchased from Sigma-Aldrich (St Louis, Mo.).” left out
as §2, with “Significance was accepted with a p<0.05.” left out

[4] = test system: PPP1R12A (Mypt1) exon 24 flanking region; assay: Surveyor nuclease assay on genomic PCR products of transfected HEK293T cells; format: cell-based, human; conditions: constructs tested individually; for Surveyor nuclease products (sizes): control ~750 bp
Experimental: HEK293T cells were seeded at a density of 1×10^5 cells/well in 24-well plates. After 24 hours, while cell confluence reached approximately 80%, cells were transfected with 1µg of sgRNA-px601 vector (experimental conditions) or px601 vector (empty vector) or pIRES-EYFP vector (positive transfection control). All transfections were performed in duplicates using Lipofectamine® 3000 Reagent (Life Technologies/ThermoFisher Scientific, Waltham, Mass.) according to the manufacturer's protocol. Twenty-four hours after transfection, a volume of 0.5 mL of culture medium was added per well (reaching a total volume of 1 mL per well). Cells were harvested 72 hours after transfection; culture medium was removed, cells were trypsinized using Gibco™ TrypLE™ Express (Life Technologies/ThermoFisher Scientific), pelleted and cell pellets were stored at −20° C. The transfection efficiency was evaluated immediately prior to harvesting of cells, by inspection of HEK293T cells transfected with pIRES-EYFP vector using a Leica MZ-FLIII fluorescence microscope equipped with a GFP filter set (Leica Microscopy Systems Ltd., Heerbrugg, Switzerland).
Genomic DNA was purified from the transfected cells using PureLink™ Genomic DNA Mini Kit (Invitrogen/ThermoFisher Scientific, Waltham, Mass.) as per the manufacturer's protocol. In order to investigate if genome editing occurred, locus PCR amplifying a 754 pb-region flanking the exon 24 of PPP1R12A gene was performed using primers MYPT12AE24F 5′-[…]-3′ (SEQ ID NO:3) (intronic region 155894 bp to 155913 bp on PPP1R12A ENSG00000058272) and MYPT12AE24R 5′-[…]-3′ (SEQ ID NO:4) (intronic region 156626 bp to 156647 bp on PPP1R12A ENSG00000058272). PCR conditions were as follows: 95° C. 5 min, then 95° C. 30 s, 53° C. 45 s, 72° C. 60 s for 30 cycles, with 5 min of final extension step at 72° C. PCR products were resolved by 2% agarose gel electrophoresis. When PCR product size was shorter than the control PCR product, genome editing occurred. For PCR products that could not be separated from the control product on 2% agarose gel due to the low resolution of the gel, a surveyor nuclease assay was performed using the Surveyor® Mutation Detection Kit (Integrated DNA Technologies, Coralville, Iowa) as per manufacturer's protocol for better visualization of the edits. The Surveyor® Mutation Detection Kit uses an endonuclease that cleaves DNA with high specificity at sites of mismatches and other distortions, allowing the detection of known and unknown DNA mutations. Briefly, target DNA is amplified by PCR from both wild-type (WT) and mutated DNA, WT and mutant DNA are then hybridized to form heteroduplexes, which are subsequently cleaved by the surveyor endonuclease. When no mutation is present, only homoduplexes are formed and no endonuclease-mediated cleavage is observed.

[5] = E24 cKO MA1s, highest concentration

Nc1nc2c(nc(Br)n2[C@@H]2O[C@@H]3COP(=O)(O)O[C@H]3[C@H]2O)c(=O)[nH]1 [8-Br-cGMP, 8-bromo-cGMP]
EC50 ([1]; CON mice): 95.2 ± 11 nM | EC50 ([1]; E24 F/+): 3 ± 2.5 nM | EC50 ([1]; E24 F/F): 6 ± 1.5 nM | maximal response to 8-Br-cGMP [1, 5]: complete relaxation

CNC[C@H](O)c1cccc(O)c1 [PE, phenylephrine]
EC50 ([2]; 336 h, CON+HS (high salt 4% NaCl, 2 weeks)): 1000 ± 500 nM | EC50 ([2]; CON mice): 500 ± 100 nM | EC50 ([2]; CON+NS (normal salt diet)): 900 ± 400 nM | EC50 ([2]; E24 F/+): 600 ± 200 nM | EC50 ([2]; E24 F/F+HS): 3000 ± 1000 nM | EC50 ([2]; E24 F/F+NS): 400 ± 200 nM | EC50 ([2]; E24 F/F): 900 ± 200 nM

CCN(CC)/[N+]([O-])=N/[O-].[Na+] [DEA/NO]
EC50 ([3]; E24 F/+ (cKO heterozygotes)): 3.3 ± 0.5 nM | EC50 ([3]; E24 F/F (cKO homozygotes)): 2.1 ± 0.5 nM | maximal response to DEA/NO [3, 5]: complete relaxation

B1: sgRNA9: guide RNA, target … (SEQ ID NO: 13); tested cloned in px601 SaCas9 plasmid (nucleic acid)
guide: GAGAAUGCUUAUCAUUUAAGGGUUUUAGUACUCUGGAAACAGAAUCUACUAAAACAAGGCAAAAUGCCGUGUUUAUCUCGUCAACUUGUUGGCGAGAUUUUU
genome editing in vitro (in words) [4]: effective genome editing | Surveyor nuclease products (sizes) [4]: 330/420

B2: sgRNA11: guide RNA, target … (SEQ ID NO: 15); tested cloned in px601 SaCas9 plasmid (nucleic acid)
guide: GUUAUGUGUAGCAUUAAUGCAGUUUUAGUACUCUGGAAACAGAAUCUACUAAAACAAGGCAAAAUGCCGUGUUUAUCUCGUCAACUUGUUGGCGAGAUUUUU
genome editing in vitro (in words) [4]: effective genome editing | Surveyor nuclease products (sizes) [4]: 320/430

B3: sgRNA5: guide RNA, target … (SEQ ID NO: 9); tested cloned in px601 SaCas9 plasmid (nucleic acid)
guide: GCAUUAUUUAUUAAUCUGGGAGUUUUAGUACUCUGGAAACAGAAUCUACUAAAACAAGGCAAAAUGCCGUGUUUAUCUCGUCAACUUGUUGGCGAGAUUUUU
genome editing in vitro (in words) [4]: effective genome editing | Surveyor nuclease products (sizes) [4]: 120/630

B4: sgRNA6: guide RNA, target … (SEQ ID NO: 10); tested cloned in px601 SaCas9 plasmid (nucleic acid)
guide: GUAUCUGAAAGGUGACCGGCGUUUUAGUACUCUGGAAACAGAAUCUACUAAAACAAGGCAAAAUGCCGUGUUUAUCUCGUCAACUUGUUGGCGAGAUUUUU
genome editing in vitro (in words) [4]: effective genome editing | Surveyor nuclease products (sizes) [4]: 250/500

B5: sgRNA12: guide RNA, target … (SEQ ID NO: 16); tested cloned in px601 SaCas9 plasmid (nucleic acid)
guide: GAUACAAAGCUAUAAAGUCAGGUUUUAGUACUCUGGAAACAGAAUCUACUAAAACAAGGCAAAAUGCCGUGUUUAUCUCGUCAACUUGUUGGCGAGAUUUUU
genome editing in vitro (in words) [4]: effective genome editing | Surveyor nuclease products (sizes) [4]: 270/480
